Consider 27 compounds from US10689381B2 (priority 2017, dated 2020).

The test system of assay [1] is L1210. The assay is described as follows: cells. In kind it is cell-based, mouse. The essentials:
(§1)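 Compound exposure ran 72 h at six concentrations (0–1000 nM or 0–10000 nM, duplicate) on cells plated at 30,000 cells/mL in 10% FBS DMEM. A closing 37 °C incubation took 15 min (HCT116) or 5 min (L1210).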

For assay [2], the system named is HCT116. Briefly: cells. In kind it is cell-based, human. The settings on record: for IC50: read-out: IC50 HCT116. In a few lines: as §1

SMILES strings stand for the structures. Where two headings read alike, the source gives them in different places.

For `CC[C@]1(NC(=O)c2ccc3scnc3c2)C[C@H]2CN(CCc3c([nH]c4ccccc34)[C@@](C(=O)OC)(c3cc4c(cc3OC)N(C)[C@H]3[C@@](O)(C(=O)OC)[C@H](OC(C)=O)[C@]5(CC)C=CCN6CC[C@]43[C@@H]65)C2)C1` [Compound 171], the IC50 in assay [1] (Table 6) worked out at 0.6 nM; in assay [2] (Table 6), 0.7 nM.
Turning to `CCC1(NC(=O)C=Cc2ccccc2)CC2CN(CCc3c([nH]c4ccccc34)C(C(=O)OC)(c3cc4c(cc3OC)N(C)C3C(O)(C(=O)OC)C(OC(C)=O)C5(CC)C=CCN6CCC43C65)C2)C1` (stereo not shown) [Compound 108], the IC50 in assay [1] (Table 3) was 0.8 nM; in assay [2] (Table 3), 0.9 nM.
In the case of `CCC1(NC(=O)c2ccc(C)c(NC(=O)c3ccccc3)c2)CC2CN(CCc3c([nH]c4ccccc34)C(C(=O)OC)(c3cc4c(cc3OC)N(C)C3C(O)(C(=O)OC)C(OC(C)=O)C5(CC)C=CCN6CCC43C65)C2)C1` (stereo not shown) [Compound 107], the half-maximal inhibitory concentration (IC50) in assay [1] (Table 2) turned out to be 30 nM; in assay [2] (Table 2), 7.6 nM.
Consider `CC[C@]1(NC(=O)c2ccc3nccnc3c2)C[C@H]2CN(CCc3c([nH]c4ccccc34)[C@@](C(=O)OC)(c3cc4c(cc3OC)N(C)[C@H]3[C@@](O)(C(=O)OC)[C@H](OC(C)=O)[C@]5(CC)C=CCN6CC[C@]43[C@@H]65)C2)C1` [Compound 155], for which the IC50 in assay [1] (Table 6) and in assay [2] (Table 6) was 0.6 nM throughout.
Consider `CC[C@]1(NC(=O)c2ccc(Cl)c(Cl)c2)C[C@H]2CN(CCc3c([nH]c4ccccc34)[C@@](C(=O)OC)(c3cc4c(cc3OC)N(C)[C@H]3[C@@](O)(C(=O)OC)[C@H](OC(C)=O)[C@]5(CC)C=CCN6CC[C@]43[C@@H]65)C2)C1` [Compound 50], for which the IC50 in assay [1] (Table 2) was 8.5 nM; in assay [2] (Table 2) it was 8.7 nM.
Take `CC[C@]1(NC(=O)c2ccc(OC(F)(F)F)cc2)C[C@H]2CN(CCc3c([nH]c4ccc(F)cc34)[C@@](C(=O)OC)(c3cc4c(cc3OC)N(C)[C@H]3[C@@](O)(C(=O)OC)[C@H](OC(C)=O)[C@]5(CC)C=CCN6CC[C@]43[C@@H]65)C2)C1` [Compound 188]: the IC50 came to 0.6 nM in assay [1] (Table 8, 10′-F compounds) and 0.7 nM in assay [2] (Table 8, 10′-F compounds).
On to `CCC1(NC(=O)c2cncs2)CC2CN(CCc3c([nH]c4ccccc34)C(C(=O)OC)(c3cc4c(cc3OC)N(C)C3C(O)(C(=O)OC)C(OC(C)=O)C5(CC)C=CCN6CCC43C65)C2)C1` (stereo not shown) [Compound 140], for which the IC50 amounted to 1.8 nM in assay [1] (Table 5) and 0.6 nM in assay [2] (Table 5).
Take `CC[C@]1(NC(=O)/C=C/c2ccoc2)C[C@H]2CN(CCc3c([nH]c4ccccc34)[C@@](C(=O)OC)(c3cc4c(cc3OC)N(C)[C@H]3[C@@](O)(C(=O)OC)[C@H](OC(C)=O)[C@]5(CC)C=CCN6CC[C@]43[C@@H]65)C2)C1` [Compound 112]: the IC50 in assay [1] (Table 3) and in assay [2] (Table 3) was 0.7 nM each time.
Consider `CCC1(NC(=O)c2cccc(OC)c2)CC2CN(CCc3c([nH]c4ccccc34)C(C(=O)OC)(c3cc4c(cc3OC)N(C)C3C(O)(C(=O)OC)C(OC(C)=O)C5(CC)C=CCN6CCC43C65)C2)C1` (stereo not shown) [Compound 68], for which the IC50 stood at 0.6 nM in assay [1] (Table 2) and 0.8 nM in assay [2] (Table 2).
Take `CC[C@]1(NC(=O)/C=C/c2ccccn2)C[C@H]2CN(CCc3c([nH]c4ccccc34)[C@@](C(=O)OC)(c3cc4c(cc3OC)N(C)[C@H]3[C@@](O)(C(=O)OC)[C@H](OC(C)=O)[C@]5(CC)C=CCN6CC[C@]43[C@@H]65)C2)C1` [Compound 111]: the IC50 in assay [1] (Table 3) and in assay [2] (Table 3) was 0.7 nM throughout.
For the compound `CC[C@]1(NC(=O)c2ccc3cc4ccccc4cc3c2)C[C@H]2CN(CCc3c([nH]c4ccccc34)[C@@](C(=O)OC)(c3cc4c(cc3OC)N(C)[C@H]3[C@@](O)(C(=O)OC)[C@H](OC(C)=O)[C@]5(CC)C=CCN6CC[C@]43[C@@H]65)C2)C1` [Compound 127], the IC50 was 40 nM in assay [1] (Table 4) and 60 nM in assay [2] (Table 4).
In the case of `CC[C@]1(NC(=O)c2cnco2)C[C@H]2CN(CCc3c([nH]c4ccccc34)[C@@](C(=O)OC)(c3cc4c(cc3OC)N(C)[C@H]3[C@@](O)(C(=O)OC)[C@H](OC(C)=O)[C@]5(CC)C=CCN6CC[C@]43[C@@H]65)C2)C1` [Compound 138], the half-maximal inhibitory concentration (IC50) in assay [1] (Table 5) stood at 3.9 nM; in assay [2] (Table 5), 3.5 nM.
On to `CCC1(NC(=O)c2ccc3cccc(OC)c3c2)CC2CN(CCc3c([nH]c4ccccc34)C(C(=O)OC)(c3cc4c(cc3OC)N(C)C3C(O)(C(=O)OC)C(OC(C)=O)C5(CC)C=CCN6CCC43C65)C2)C1` (stereo not shown) [Compound 120], for which the values for the 50% inhibitory concentration (IC50) in assay [1] (Table 4) and in assay [2] (Table 4) were 10 nM and 13 nM, respectively.
Consider `CC[C@]1(NC(=O)c2ccc(N)c(C)c2)C[C@H]2CN(CCc3c([nH]c4ccccc34)[C@@](C(=O)OC)(c3cc4c(cc3OC)N(C)[C@H]3[C@@](O)(C(=O)OC)[C@H](OC(C)=O)[C@]5(CC)C=CCN6CC[C@]43[C@@H]65)C2)C1` [Compound 104], for which the IC50 in assay [1] (Table 2) and in assay [2] (Table 2) was 0.6 nM in each case.
For the compound `CC[C@]1(NC(=O)c2ccc3ncsc3c2)C[C@H]2CN(CCc3c([nH]c4ccccc34)[C@@](C(=O)OC)(c3cc4c(cc3OC)N(C)[C@H]3[C@@](O)(C(=O)OC)[C@H](OC(C)=O)[C@]5(CC)C=CCN6CC[C@]43[C@@H]65)C2)C1` [Compound 170], the 50% inhibitory concentration (IC50) in assay [1] (Table 6) stood at 0.5 nM; in assay [2] (Table 6), 0.6 nM.
`CCC1(NC(=O)c2cccc(SC)c2)CC2CN(CCc3c([nH]c4ccccc34)C(C(=O)OC)(c3cc4c(cc3OC)N(C)C3C(O)(C(=O)OC)C(OC(C)=O)C5(CC)C=CCN6CCC43C65)C2)C1` (stereo not shown) [Compound 85]: the half-maximal inhibitory concentration (IC50) in assay [1] (Table 2) was found to be 5.4 nM; in assay [2] (Table 2) it was 2.3 nM.
Take `CC[C@]1(NC(=O)c2nc3ccccc3o2)C[C@H]2CN(CCc3c([nH]c4ccccc34)[C@@](C(=O)OC)(c3cc4c(cc3OC)N(C)[C@H]3[C@@](O)(C(=O)OC)[C@H](OC(C)=O)[C@]5(CC)C=CCN6CC[C@]43[C@@H]65)C2)C1` [Compound 169]: the 50% inhibitory concentration (IC50) in assay [1] (Table 6) and in assay [2] (Table 6) was 60 nM throughout.
For the compound `CC[C@]1(NC(=O)c2ccc3c(c2)CCN3C(=O)OC(C)(C)C)C[C@H]2CN(CCc3c([nH]c4ccccc34)[C@@](C(=O)OC)(c3cc4c(cc3OC)N(C)[C@H]3[C@@](O)(C(=O)OC)[C@H](OC(C)=O)[C@]5(CC)C=CCN6CC[C@]43[C@@H]65)C2)C1` [Compound 178], the IC50 worked out at 35 nM in assay [1] (Table 6) and 15 nM in assay [2] (Table 6).
In the case of `CCC1(NC(=O)c2ccc(C3CCCCC3)cc2)CC2CN(CCc3c([nH]c4ccccc34)C(C(=O)OC)(c3cc4c(cc3OC)N(C)C3C(O)(C(=O)OC)C(OC(C)=O)C5(CC)C=CCN6CCC43C65)C2)C1` (stereo not shown) [Compound 43], the IC50 turned out to be 40 nM in assay [1] (Table 2) and 30 nM in assay [2] (Table 2).
In the case of `CC[C@]1(NC(=O)c2ccc3ccsc3c2)C[C@H]2CN(CCc3c([nH]c4ccccc34)[C@@](C(=O)OC)(c3cc4c(cc3OC)N(C)[C@H]3[C@@](O)(C(=O)OC)[C@H](OC(C)=O)[C@]5(CC)C=CCN6CC[C@]43[C@@H]65)C2)C1` [Compound 162], the IC50 in assay [1] (Table 6) was determined as 3.1 nM; in assay [2] (Table 6), 2.9 nM.
Consider `CCC1(NC(=O)c2ccccc2OC)CC2CN(CCc3c([nH]c4ccccc34)C(C(=O)OC)(c3cc4c(cc3OC)N(C)C3C(O)(C(=O)OC)C(OC(C)=O)C5(CC)C=CCN6CCC43C65)C2)C1` (stereo not shown) [Compound 69], for which the IC50 in assay [1] (Table 2) is 30 nM; in assay [2] (Table 2), 10 nM.
As for `CC[C@]1(NC(=O)c2ccc(OC)c(C)c2)C[C@H]2CN(CCc3c([nH]c4ccccc34)[C@@](C(=O)OC)(c3cc4c(cc3OC)N(C)[C@H]3[C@@](O)(C(=O)OC)[C@H](OC(C)=O)[C@]5(CC)C=CCN6CC[C@]43[C@@H]65)C2)C1` [Compound 97], the IC50 worked out at 0.6 nM in assay [1] (Table 2) and 0.7 nM in assay [2] (Table 2). In assay [2] (vinblastine-sensitive cell lines), the “potency relative to vinblastine (more potent)” value is on record as 10 fold.
For `CCC1(NC(=O)c2cnc3ccccc3c2)CC2CN(CCc3c([nH]c4ccccc34)C(C(=O)OC)(c3cc4c(cc3OC)N(C)C3C(O)(C(=O)OC)C(OC(C)=O)C5(CC)C=CCN6CCC43C65)C2)C1` (stereo not shown) [Compound 151], the IC50 in assay [1] (Table 6) turned out to be 0.7 nM; in assay [2] (Table 6), 0.6 nM.
As to `CCC1(NC(=O)c2ccc3c(c2)CCN3)CC2CN(CCc3c([nH]c4ccccc34)C(C(=O)OC)(c3cc4c(cc3OC)N(C)C3C(O)(C(=O)OC)C(OC(C)=O)C5(CC)C=CCN6CCC43C65)C2)C1` (stereo not shown) [Compound 177], the IC50 in assay [1] (Table 6) came out at 5.1 nM; in assay [2] (Table 6), 6.7 nM.
As for `CCC1(NC(=O)c2ccc3cccnc3c2)CC2CN(CCc3c([nH]c4ccccc34)C(C(=O)OC)(c3cc4c(cc3OC)N(C)C3C(O)(C(=O)OC)C(OC(C)=O)C5(CC)C=CCN6CCC43C65)C2)C1` (stereo not shown) [Compound 149], the IC50 in assay [1] (Table 6) came out at 0.6 nM; in assay [2] (Table 6), 0.7 nM.
In the case of `CCC1(NC(=O)c2ccc(C)c(N)c2)CC2CN(CCc3c([nH]c4ccccc34)C(C(=O)OC)(c3cc4c(cc3OC)N(C)C3C(O)(C(=O)OC)C(OC(C)=O)C5(CC)C=CCN6CCC43C65)C2)C1` (stereo not shown) [Compound 101], the IC50 in assay [1] (Table 2) turned out to be 0.6 nM; in assay [2] (Table 2), 0.7 nM.
Turning to `CCC1(NC(=O)C2CCSCC2)CC2CN(CCc3c([nH]c4ccccc34)C(C(=O)OC)(c3cc4c(cc3OC)N(C)C3C(O)(C(=O)OC)C(OC(C)=O)C5(CC)C=CCN6CCC43C65)C2)C1` (stereo not shown) [Compound 145], the IC50 came to 460 nM in assay [1] (Table 5) and 450 nM in assay [2] (Table 5).
